Test results as given in ChEMBL document CHEMBL1153534, “Design and synthesis of androgen receptor antagonists with bulky side chains for overcoming antiandrogen resistance” (J Med Chem, 2009).
Calls of active or inactive are those of the source. No cut-off for these calls is given here.

How the values were obtained:
Assay type in all cases: functional, cell-based
PC-3 [1] = assay: Cytotoxicity against human PC3 cells after 72 hrs by MTT assay
LNCaP = assay: Cytotoxicity against human LNCAP cells after 72 hrs by MTT assay
CWR22R = assay: Cytotoxicity against human 22Rv1 cells after 72 hrs by MTT assay; conditions: 22Rv1, 72 h
[2] = Cytotoxicity against human C4-2B cells after 72 hrs by MTT assay; conditions: LNCaP C4-2B
PC-3 [3] = assay: Cytotoxicity against human PC3 cells at 150 uM after 72 hrs by MTT assay
[4] = Cytotoxicity against human MDA PCa 2b cells after 72 hrs by MTT assay
[5] = Homo sapiens, PC-3, 72 h, read-out: IC50

SMILES	IC50 (PC-3 [1]; [5])	IC50 (LNCaP)	IC50 (CWR22R)	IC50 [2]	IC50 (PC-3 [1]; pc-3)	Activity (PC-3 [3])	IC50 [4]
COc1cc(/C=C/C(O)=C/C(=O)/C=C/C2=C(C)CCCC2(C)C)cc(OC)c1O	26.7 µM	6.2 µM	12.2 µM	9.8 µM	–	–	–
CC(=O)/C=C/C1=C(C)CCCC1(C)C [BETA-IONONE]	–	151 µM	–	–	Not Active	inactive	–
CCn1c2ccccc2c2cc(/C=C(\C(=O)/C=C/C3=C(C)CCCC3(C)C)C(=O)/C=C/c3ccc(O)c(OC)c3)ccc21	7 µM	2.3 µM	2.4 µM	2.3 µM	–	–	8.1 µM
CCOc1ccc(/C=C(\C(=O)/C=C/C2=C(C)CCCC2(C)C)C(=O)/C=C/c2ccc(OCC)c(OCC)c2)cc1OCC	14.1 µM	14.9 µM	9.3 µM	4.5 µM	–	–	6.8 µM
COc1cc(/C=C(\C(=O)/C=C/C2=C(C)CCCC2(C)C)C(=O)/C=C/c2cc(OC)c(O)c(OC)c2)cc(OC)c1O	12.5 µM	8.7 µM	17.6 µM	8.5 µM	–	–	15.3 µM
COc1ccc(/C=C/C(O)=C/C(=O)/C=C/C2=C(C)CCCC2(C)C)cn1	52.2 µM	25.1 µM	–	–	–	–	–
COc1cc(/C=C/C(O)=C/C(=O)/C=C/C2=C(C)CCCC2(C)C)cc(OC)c1OC	> 50 µM	21.4 µM	17.1 µM	11.9 µM	–	–	–
COc1ccc(/C=C/C(O)=C/C(=O)/C=C/C2=C(C)CCCC2(C)C)cc1O	38.3 µM	25.9 µM	–	23.1 µM	–	–	–
COc1cc(/C=C/C(=O)/C(=C/c2ccc3ccccc3n2)C(=O)/C=C/C2=C(C)CCCC2(C)C)ccc1O	15.2 µM	8.5 µM	5.1 µM	5.3 µM	–	–	–
COc1cc(/C=C/C(=O)CC(=O)/C=C/c2ccc(O)c(OC)c2)ccc1O [CURCUMIN]	16.8 µM	8.5 µM	18.3 µM	6.1 µM	–	–	–
COc1cc(/C=C/C(O)=C/C(=O)/C=C/C2=C(C)CCCC2(C)C)ccc1O	15.8 µM	20.6 µM	10.6 µM	44.3 µM	–	–	–
CC1=C(/C=C/C(=O)/C(=C\c2ccc(O)cc2)C(=O)/C=C/c2ccc(O)cc2)C(C)(C)CCC1	6.7 µM	4.5 µM	4.7 µM	4 µM	–	–	4.7 µM
